Experimental data from patent US5849526A, “Use of linalool synthase in genetic engineering of scent production” (The Regents of the University of Michigan, priority 1996, dated 1998).
Read-outs that look alike come from different tables or passages of the source.

What was measured:
[1] = target: T1, C. breweri S-linalool synthase (Clarkia breweri, UniProt Q96376); assay: S-linalool synthase (LIS) enzyme assay: conversion of [1-3H]-GPP to linalool, hexane/pentane overlay, scintillation counting or radio-GC; type: biochemical; conditions: for Specific Activity: by purification step, starting material 10 g excised stigmata; for whether the divalent metal ion supports the enzymatic reaction (Neither ... nor ... support): at 1 to 10 mM, as the chloride salts; for effect of detergent on enzyme activity: 0.1% w/v (SDS at similar levels); for rate of conversion to linalool relative to the rate for GPP: LPP enantiomers tested as alternate substrates; for Rate (substrate specificity, relative to GPP = 100%): putative substrates tested at 12 μM, averages and SE of four replicate determinations; for efficiency of divalent metal ion as cofactor (in words): Mg2+ substituting for Mn2+
T1 construct: active as monomer; not recombinant
T1 sequence (Q96376 1-870): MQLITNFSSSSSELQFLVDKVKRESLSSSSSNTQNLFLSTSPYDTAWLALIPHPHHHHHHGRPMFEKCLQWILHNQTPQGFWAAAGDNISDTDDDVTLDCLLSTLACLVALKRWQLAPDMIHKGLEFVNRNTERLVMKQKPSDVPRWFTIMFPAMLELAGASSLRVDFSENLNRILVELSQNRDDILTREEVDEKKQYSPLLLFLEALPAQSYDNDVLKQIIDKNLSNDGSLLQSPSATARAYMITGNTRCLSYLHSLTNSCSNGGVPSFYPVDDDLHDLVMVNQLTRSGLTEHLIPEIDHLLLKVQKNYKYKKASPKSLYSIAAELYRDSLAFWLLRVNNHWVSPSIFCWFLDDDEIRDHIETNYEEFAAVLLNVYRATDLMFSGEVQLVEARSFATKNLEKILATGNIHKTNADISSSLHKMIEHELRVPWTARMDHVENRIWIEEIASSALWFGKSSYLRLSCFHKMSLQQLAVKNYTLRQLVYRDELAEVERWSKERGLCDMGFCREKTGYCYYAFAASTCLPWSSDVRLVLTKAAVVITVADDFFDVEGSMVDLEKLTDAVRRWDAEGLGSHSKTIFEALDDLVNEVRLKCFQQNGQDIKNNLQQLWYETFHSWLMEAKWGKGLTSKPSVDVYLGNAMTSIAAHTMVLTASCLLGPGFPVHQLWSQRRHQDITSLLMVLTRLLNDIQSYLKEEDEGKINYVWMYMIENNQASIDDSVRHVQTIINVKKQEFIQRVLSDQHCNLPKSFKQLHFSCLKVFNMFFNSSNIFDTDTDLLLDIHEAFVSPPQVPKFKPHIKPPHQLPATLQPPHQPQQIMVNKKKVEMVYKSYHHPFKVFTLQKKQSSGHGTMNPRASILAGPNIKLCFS
Description: The crude extract (100 ml) was loaded onto a DEAE-cellulose (0.7 cm diam.×6 cm) column (Whatman, DE52) that was pre-equilibrated with a solution containing 50 mM BisTris, pH 6.9, 10% glycerol and 10 mM DTT (buffer A) at a flow rate of about 1 ml/min. Following elution of the unadsorbed material, the column was washed with 50 ml of buffer A followed by an additional 20 ml of buffer A containing 150 mM KCl. LIS activity was then eluted with 20 ml of buffer A containing 250 mM KCl. Fractions with the highest LIS activity (about 60% yield, 10 ml), were either pooled and used immediately, or frozen at -20° C. for up to 1 month with less than 20% loss of activity. The DEAE-cellulose purified fractions were diluted 2-fold with ice-cold buffer A, and loaded on a 1 cm diam.×10cm hydroxyapatite column (Bio-Gel HT, Bio-Rad, Richmond, Calif.) installed in a Pharmacia FPLC apparatus, and pre-equilibrated with 100 ml of buffer A, at a flow rate of 0.5 ml/min. After the enzyme was loaded, the column was washed with 20 ml buffer A and then eluted using a linear gradient (100 ml) from 0 to 200 mM Na-phosphate in buffer A. The fractions containing LIS activity, eluting at about 100 mM Na-phosphate, were pooled (10 to 16 ml) and loaded on a pre-packed Pharmacia Mono-Q HR 5/5 FPLC column equilibrated with buffer A. After a 20-ml wash with buffer A, a steep linear gradient from 0 to 100 mM KCl in buffer A (10 ml) was applied, followed by a more gradual linear gradient from 100 to 400 mM KCl in buffer A (100 ml, 0.25 ml/min). The enzyme consistently eluted at about 220 mM KCl. After dialysis to assay conditions, the enzyme at this level of purity was used for characterization.
After incubation, the assay mixture was briefly mixed again to extract non-polar products into the organic layer. An 800-μl aliquot of the hexane phase was placed into a scintillation vial containing 10 ml of a cocktail of 0.4% (w/v) Omnifluor (Du Pont, Boston Mass.) dissolved in 30% (v/v) ethanol in toluene and counted in a Packard TriCarb 460 CD scintillation spectrometer (efficiency for ^3 H=36%) to determine the total monoterpene synthase activity. To examine in detail the products formed, radio-GC was performed as described (Croteau et al., 1990). For this purpose, the 2 ml pentane extract containing the enzymatically formed ^3 H-labeled products was removed, dried by passage through MgSO4, and internal standards were added (10 μg each of linalool and geraniol; nerol was UD also included in initial experiments). The mixture was then concentrated to ~10 μl under a gentle stream of nitrogen, and an aliquot (2-3 μl) was injected into a Gow-Mac 550P radio gas chromatograph fitted with a 0.125 in ×12 ft stainless steel column loaded with AT-1000 (Gas Chrom Q, Alltech), attached to a Packard 894 gas proportional counter. The initial column temperature was 170° C. and, following a 5 min hold, was programmed at 5° C./min to 220° C., using He at a flow rate of 50 ml/min. Control incubations included the omission of enzyme extract, the use of boiled enzyme extract, the omission of substrate, and the omission of divalent cations. All of these controls produced negligible radioactivity in the hexane phase of the enzyme assay mixtures.
The enantiomeric composition of linalool samples was determined on a fused silica capillary column (0.25 mm internal diam.×30 m) coated with a 0.25 μm film of β-cyclodextrin (J & W Scientific, Cyclodex B), operated at an initial temperature of 75° C. for 15 min followed by a rise of 5° C./min to 200° C. H2 at a head pressure of 13.5 psi was used as carrier gas (Alonso et al., 1992).

[2] = target: T2, LIS (linalool synthase) in crude extracts (Clarkia breweri, UniProt Q96376); assay: LIS activity assay in crude extracts of open C. breweri flowers; type: biochemical
T2 sequence (Q96376 1-870): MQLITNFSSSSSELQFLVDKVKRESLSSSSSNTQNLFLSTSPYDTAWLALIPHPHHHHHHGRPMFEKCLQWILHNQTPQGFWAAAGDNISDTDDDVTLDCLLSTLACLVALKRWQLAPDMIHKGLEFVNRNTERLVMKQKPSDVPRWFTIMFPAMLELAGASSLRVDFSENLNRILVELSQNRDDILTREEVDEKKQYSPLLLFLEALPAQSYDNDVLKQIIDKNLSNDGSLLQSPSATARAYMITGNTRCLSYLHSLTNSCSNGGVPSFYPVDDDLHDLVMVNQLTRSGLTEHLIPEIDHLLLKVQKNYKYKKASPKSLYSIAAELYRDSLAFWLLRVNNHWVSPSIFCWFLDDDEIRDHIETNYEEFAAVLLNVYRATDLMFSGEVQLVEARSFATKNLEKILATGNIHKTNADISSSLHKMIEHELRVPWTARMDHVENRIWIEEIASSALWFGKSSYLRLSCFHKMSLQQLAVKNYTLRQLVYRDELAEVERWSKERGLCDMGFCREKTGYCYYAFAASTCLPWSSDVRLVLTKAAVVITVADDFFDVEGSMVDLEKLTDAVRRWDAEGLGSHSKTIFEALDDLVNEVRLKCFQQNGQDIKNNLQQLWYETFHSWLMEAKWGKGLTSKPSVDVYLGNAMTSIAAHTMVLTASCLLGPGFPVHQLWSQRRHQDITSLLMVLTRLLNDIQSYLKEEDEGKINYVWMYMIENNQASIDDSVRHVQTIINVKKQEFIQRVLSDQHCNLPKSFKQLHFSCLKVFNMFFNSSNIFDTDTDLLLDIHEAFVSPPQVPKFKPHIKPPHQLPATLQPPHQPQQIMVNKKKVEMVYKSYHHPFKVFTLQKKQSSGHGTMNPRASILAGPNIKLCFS
Description: LIS activity was assayed by combining crude extract with ^3 H-GPP (or other substrates) in a buffer containing co-factors. LIS activity was monitored by counting the radioactive linalool extracted from the assay buffer with hexane (GPP is not soluble in hexane) in a scintillation counter. Radio-GC analyses (Croteau et al., 1990) were also undertaken because GPP could be enzymatically hydrolyzed by non-specific phosphatases to produce geraniol, or the tissue might contain other monoterpene synthases, and geraniol or the other monoterpenes that may be produced are also soluble in the organic phase. […] Furthermore, with a special stereo-GC column it was also shown that the product of the reaction is exclusively S-linalool.
A crude protein extract was prepared by macerating flower parts in a microcentrifuge tube in the presence of ice-cold buffer (10 volumes:fresh weight) containing 50 mM BisTris-HCl pH 6.9, 10 mM DTT, 5 mM Na2 S2 O5, 1% (w/v) PVP-40 and 10% (v/v) glycerol. The slurry was centrifuged for 10 min and the supernatant transferred to a new tube. For each time point, extracts of 3 to 5 flowers from 3 different plants were combined. […]
After 1 h, the tube was vortexed again and the amount of the radioactive linalool product, which partitioned into the organic phase, was determined by an LSC of an aliquot. […]

[3] = divalent metal ion required for activity, read-out: Km of divalent metal ion cofactor

Hydroxyapatite
Specific Activity [1]: 44.1 pkat mg^-1
specific activity of preparation loaded on Superdex 75 ([1]; hydroxyapatite-purified enzyme): 44.1 pkat/mg protein

[Ca+2] [Ca^2+]
whether the divalent metal ion supports the enzymatic reaction (Neither ... nor ... support) [1]: Neither

CCCCCCCCCCCCOS(=O)(=O)[O-].[Na+] [sodium dodecyl sulfate, reference compound]
effect of detergent on enzyme activity [1]: complete loss of activity

[3H]C=C[C@@](C)(CCC=C(C)C)OP(=O)(O)OP(=O)(O)O [3R-[1-^3 H]Linalyl pyrophosphate, reference compound]
rate of conversion to linalool relative to the rate for GPP [1]: essentially not converted to linalool
Rate (substrate specificity, relative to GPP = 100%) [1]: 0.6 ± 0.6%

[3H]C=C[C@](C)(CCC=C(C)C)OP(=O)(O)OP(=O)(O)O [3S-[1-^3 H]Linalyl pyrophosphate, reference compound]
rate of conversion to linalool relative to the rate for GPP [1]: 15%
Rate (substrate specificity, relative to GPP = 100%) [1]: 15.1 ± 6.0%

CC(C)=CCC/C(C)=C/COP(=O)(O)OP(=O)(O)O [GPP, Geranyl Pyrophosphate, reference compound]
Km ([1]; calculated from a Lineweaver-Burk plot, purified enzyme, read-out: Km value for GPP): 0.9 µM
Rate (substrate specificity, relative to GPP = 100%) [1]: 100 ± 9.6%
Rate with GPP corresponding to 100% ([1]; substrate at 12 μM, Table 6 footnote b): 22. 2 pkat/mg protein
cofactor / substrate requirement of LIS activity [2]: the only substrate

Triton-X-100 [reference compound]
effect of detergent on enzyme activity [1]: no effect on enzyme activity

[Mg+2] [Mg^2+]
efficiency of divalent metal ion as cofactor (in words) [1]: half the rate
Km [1, 3]: 330 µM

[Zn+2] [Zn^2+]
whether the divalent metal ion supports the enzymatic reaction (Neither ... nor ... support) [1]: Neither

[Co+2] [Co^2+]
whether the divalent metal ion supports the enzymatic reaction (Neither ... nor ... support) [1]: Neither

[Mn+2] [Mn^2+]
efficiency of divalent metal ion as cofactor (in words) [1]: most efficient
Km [1, 3]: 45 µM

[Cu+2] [Cu^2+]
whether the divalent metal ion supports the enzymatic reaction (Neither ... nor ... support) [1]: Neither

B1: LIS: S-linalool synthase purified from stigmata of C. breweri (Mono Q purified enzyme used for characterization), SEQ ID NO:2 (protein)
chain: MQLITNFSSSSSELQFLVDKVKRESLSSSSSNTQNLFLSTSPYDTAWLALIPHPHHHHHHGRPMFEKCLQWILHNQTPQGFWAAAGDNISDTDDDVTLDCLLSTLACLVALKRWQLAPDMIHKGLEFVNRNTERLVMKQKPSDVPRWFTIMFPAMLELAGASSLRVDFSENLNRILVELSQNRDDILTREEVDEKKQYSPLLLFLEALPAQSYDNDVLKQIIDKNLSNDGSLLQSPSATARAYMITGNTRCLSYLHSLTNSCSNGGVPSFYPVDDDLHDLVMVNQLTRSGLTEHLIPEIDHLLLKVQKNYKYKKHHQNHCIALLRNYTGFISIFGCFESIITGYHHQFFCWFLDDDEIRDHIETNYEEFAAVLLNVYRATDLMFSGEVQLVEARSFATKNLEKILATGNIHKTNADISSSLHKMIEHELRVPWTARMDHVENRIWIEEIASSALWFGKSSILRLSCFHKMSLQQLAVKNYTLRQLVYRDELAEVERWSKERGLCDMGFCREKTGYCYYAFAASTCLPWSSDVRLVLTKAAVVITVADDFFDVEGSMVDLEKLTDAVRRWDAEGLGSHSKTIFEALDDLVNEVRLKCFQQNGQDIKNNLQQLWYETFHSWLMEAKWGKGLTSKPSVDVYLGNAMTSIAAHTMVLTASCLLGPGFPVHQLWSQRRHQDITSLLMVLTRLLNDIQSYLKEEDEGKINYVWMYMIENNQASIDDSVRHVQTIINVKKQEFIQRVLSDQHCNLPKSFKQLHFSCLKVFNMFFNSSNIFDTDTDLLLDIHEAFVSPPQVPKFKPHIKPPHQLPATLQPPHQPQQIMVNKKKVEMVYKSYHHPFKVFTLQKKQSSGHGTMNPRASILAGPNIKLCFS
pH optimum ([1]; broad optimum): 7.4
Specific Activity [1]: 395 pkat mg^-1
stability to vigorous vortexing with non-polar organic solvents ([1]; hexane and pentane): very stable
loss of activity in the absence of DTT ([1]; over 2 h at 4° C.): > 95%
rate at pH 6.4 and 8.4 relative to the optimal ([1]; pH 6.4 and 8.4): ~ 80%
turnover number ([1]; under saturating conditions): 31.6 s⁻¹
